# Patent US11084800B2 (Achillion Pharmaceuticals, Inc., priority 2017, dated 2021)
# Molecular target: Human Factor D (Homo sapiens (Human), UniProt P00746)
# Assay: Human Factor D Assay
# Type: biochemical
# Conditions: Factor D inhibition, assay of Example 10; read-out: IC5 (Stars)
# Outline: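 Serum-purified Factor D (80 nM final) preincubated 5 min at room temperature with compound in 50 mM Tris, 1 M NaCl, pH 7.5. Z-L-Lys-SBz and DTNB added at 100 μM each; A405 followed every 30 s for 30 min. IC50 from nonlinear regression of rates versus concentration.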
# Sequence of Human Factor D (P00746 26-253): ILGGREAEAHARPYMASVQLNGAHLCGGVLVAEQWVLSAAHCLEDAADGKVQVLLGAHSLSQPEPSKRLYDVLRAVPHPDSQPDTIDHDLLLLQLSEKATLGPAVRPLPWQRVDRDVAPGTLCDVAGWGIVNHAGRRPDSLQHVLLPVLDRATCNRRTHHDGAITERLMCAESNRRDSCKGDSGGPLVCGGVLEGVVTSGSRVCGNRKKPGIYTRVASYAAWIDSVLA
row,IC50 [µM],SMILES
1,< 1,"CC(=O)c1nn(CC(=O)N2[C@H](C(=O)Nc3nc(Br)ccc3C)C[C@@]3(CN(CCO)CCO)C[C@@H]23)c2cnc(-c3cnc(C)nc3)cc12 [Compound 262, (1R,3S,5R)-2-(2-(3-acetyl-5-(2-methylpyrimidin-5-yl)-1H-pyrazolo[3,4-c]pyridin-1-yl)acetyl)-5-((bis(2-hydroxyethyl)amino)methyl)-N-(6-bromo-3-methylpyridin-2-yl)-2-azabicyclo[3.1.0] hexane-3-carboxamide]"
2,> 10,"Cc1ncc(-c2ccc3c(c2)c(CC#N)nn3CC(=O)N2[C@H](C(=O)Nc3nc(Br)ccc3C)C[C@@]3(C)C[C@@H]23)cn1 [Compound 367, (1R,3S,5R)-N-(6-bromo-3-methylpyridin-2-yl)-2-(2-(3-(cyanomethyl)-5-(2-methylpyrimidin-5-yl)-1H-indazol-1-yl)acetyl)-5-methyl-2-azabicyclo[3.1.0]hexane-3-carboxamide]"

row,SMILES,IC50 [µM]
1,"CC(=O)c1nn(CC(=O)N2[C@H](C(=O)Nc3cc(CC(F)(F)F)cc(Br)n3)C[C@@]3(C)C[C@@H]23)c2ccc(-c3cnc(C)nc3)cc12 [Compound 572, (1R,3S,5R)-2-(2-(3-acetyl-5-(2-methylpyrimidin-5-yl)-1H-indazol-1-yl)acetyl)-N-(6-bromo-4-(2,2,2-trifluoroethyl)pyridin-2-yl)-5-methyl-2-azabicyclo[3.1.0]hexane-3-carboxamide]",< 1

# Same assay, conditions: Table 6; Factor D 80 nM, substrate Z-L-Lys-SBz; read-out: IC50
row,SMILES,IC50 [µM]
1,"CC(=O)c1nn(CC(=O)N2[C@H](C(=O)Nc3nc(Br)ccc3C)C[C@@]3(C)C[C@@H]23)c2cnc(-c3cnc4cc(C)nn4c3)cc12 [Compound 219, (1R,3S,5R)-2-(2-(3-acetyl-5-(2-methylpyrazolo[1,5-a]pyrimidin-6-yl)-1H-pyrazolo[3,4-c]pyridin-1-yl)acetyl)-N-(6-bromo-3-methylpyridin-2-yl)-5-methyl-2-azabicyclo[3.1.0]hexane-3-carboxamide]",< 1
2,"COCc1ccc(Br)c(NC(=O)[C@@H]2C[C@@]3(C)C[C@H]3N2C(=O)Cn2nc(C(C)=O)c3cc(-c4cnc(C)nc4)cc(COC)c32)n1 [Compound 86, (1R,3S,5R)-2-(2-(3-acetyl-7-(methoxymethyl)-5-(2-methylpyrimidin-5-yl)-1H-indazol-1-yl)acetyl)-N-(3-bromo-6-(methoxymethyl)pyridin-2-yl)-5-methyl-2-azabicyclo[3.1.0]hexane-3-carboxamide]",> 10
3,"CC(=O)c1nn(CC(=O)N2[C@H](C(=O)Nc3cccc(O)n3)C[C@@]3(C)C[C@@H]23)c2c(C)cc(-c3cnc(C)nc3)cc12 [Compound 105, (1R,3S,5R)-2-(2-(3-Acetyl-7-methyl-5-(2-methylpyrimidin-5-yl)-1H-indazol-1-yl)acetyl)-N-(6-hydroxypyridin-2-yl)-5-methyl-2-azabicyclo[3.1.0]hexane-3-carboxamide]",< 1
4,"CC(=O)c1c2cc(-c3cnc(C)nc3)cc(C(F)(F)F)c2nn1CC(=O)N1[C@H](C(=O)Nc2nc(Br)ccc2C)C[C@@]2(C)C[C@@H]12 [Compound 217, (1R,3S,5R)-2-(2-(3-acetyl-5-(2-methylpyrimidin-5-yl)-7-(trifluoromethyl)-2H-indazol-2-yl)acetyl)-N-(6-bromo-3-methylpyridin-2-yl)-5-methyl-2-azabicyclo[3.1.0]hexane-3-carboxamide]",> 10
5,"CC(=O)c1nn(CC(=O)N2[C@H](C(=O)Nc3nc(Br)ccc3C)C[C@@]3(C)C[C@@H]23)c2ccc(-c3cnc(C)nc3)nc12 [Compound 184, (1R,3S,5R)-2-(2-(3-Acetyl-5-(2-methylpyrimidin-5-yl)-1H-pyrazolo[4,3-b]pyridin-1-yl)acetyl)-N-(6-bromo-3-methylpyridin-2-yl)-5-methyl-2-azabicyclo[3.1.0]hexane-3-carboxamide]",1 to 10
6,"CC(=O)c1nn(CC(=O)N2[C@H]3C[C@@]3(CN(C)C)C[C@H]2C(=O)Nc2nc(Br)ccc2C)c2ccc(-c3cnc(C)nc3)cc12 [Compound 10, (1S,3S,5S)-2-(2-(3-Acetyl-5-(2-methylpyrimidin-5-yl)-1H-indazol-1-yl)acetyl)-N-(6-bromo-3-methylpyridin-2-yl)-5-((dimethylamino)methyl)-2-azabicyclo[3.1.0]hexane-3-carboxamide]",1 to 10

# Same assay, conditions: Table 8; Factor D 80 nM, substrate Z-L-Lys-SBz; read-out: IC50
row,SMILES,IC50 [µM]
1,"CC(=O)c1nn(CC(=O)N2C[C@@]3(CC(c4ccccc4)=NO3)C[C@H]2C(=O)Nc2nc(Br)ccc2C)c2c(C)cc(-c3cnc(C)nc3)cc12 [Compound 243, (5S,8S)-7-(2-(3-acetyl-7-methyl-5-(2-methylpyrimidin-5-yl)-1H-indazol-1-yl)acetyl)-N-(6-bromo-3-methylpyridin-2-yl)-3-phenyl-1-oxa-2,7-diazaspiro[4.4]non-2-ene-8-carboxamide]",1 to 10
2,"CCCCCCCCCCNC(=O)[C@@H]1C[C@@]2(C)C[C@H]2N1C(=O)Cn1nc(C(C)=O)c2cc(-c3cnc(C)nc3)cc(C)c21 [Compound 531, (1R,3S,5R)-2-(2-(3-acetyl-7-methyl-5-(2-methylpyrimidin-5-yl)-1H-indazol-1-yl)acetyl)-N-decyl-5-methyl-2-azabicyclo[3.1.0]hexane-3-carboxamide]",> 10
